Results as given in patent publication US20250326739A1, “CD38 MODULATORS AND USES THEREOF” (Aeovian Pharmaceuticals, Inc., priority 2022, published 2025).
One block for each compound: values may come before it.

Legend:
human CD38 = human CD38 (Homo sapiens (Human), UniProt P28907); assay: NAD+ cyclase activity assay with human recombinant CD38 protein; type: biochemical; settings: 1.9 nM human CD38, 15.8 μM e-NAD substrate, fluorescence read-out
Protocol: (§1) Example 5: NAD^+ Cydase Activity Assay with Human or Mouse Recombinant CD38 Protein
(§2) The following assay was used to determine the ability of compounds of the invention to inhibit the hydrolysis of NAD^+ by the human or mouse enzyme, CD38.
(§3) Reaction buffer: 40 mM HEPES/NaOH pH 7.5, 250 mM sucrose, 0.01% Tween
(§4) Final concentrations: 0.6 nM mouse CD38 (4947-AC, Bio-Techne GmbH) 1.9 nM human CD38 (AVI2404, Bio-Techne GmbH)
(§5) Substrate: 15.8 μM Nicotinamide 1,N6-ethenoadenine dinucleotide (E-NAD)
(§6) Read-out: Fluorescence intensity (extinction 300 nm/emission 410 nm)
(§7) Required reaction buffer, required CD38 concentration in reaction buffer and required e-NAD concentration in reaction buffer were prepared. Thereafter, 8 μL of CD38 in reaction buffer were added to High Control and compound concentration wells in 384 well plate (Corning #4514, 384 well, nonbinding surface, low volume, round bottom) and 8 μL of reaction buffer to Low Control. Compound dilutions were transferred via pintool technology that transfers 42.5 nL compound dilutions (12-point dose-response with factor three dilutions in 100% DMSO) well-to-well. Plate was subsequently shaken for 15 s at 1450 rpm and sealed for incubation for 30 min at room temperature. Thereafter, 2 μL of e-NAD in reaction buffer were added with Integra Voyager. After shaking for 15 s at 1450 rpm, plate was sealed, and assay signal was measured continuously with PHERAstar® fluorescence intensity module (extinction 300 nm/emission 410 nm).
(§8) Dose-response curves were constructed using twelve-point factor three dilutions in triplicates per plate. High control (full enzyme activity) was set to assay signal of CD38 and e-NAD in presence of vehicle (DMSO) and Low control (full enzyme inhibition) was set to assay signal of e-NAD and vehicle (DMSO) in absence of CD38. For data analysis, fluorescent signal of traces corresponding to each compound concentration and High and Low control was monitored over time. Each run, High Control (full enzyme activity) was fitted to Linear equation via GraphPad Prism to determine CD38 activity from the slope and determine the time interval of linear phase of reaction to account for minor fluctuations. Thereafter, slopes of all compound concentrations were determined via fitting to same linear equation (GraphPad Prism) over the same time interval as determined for High control. Percentage inhibition was calculated via normalization to High and Low Control via the equation: %−inhibition=100*(1−((Sample−Low control)/(High control−Low control))) Half maximal inhibitory concentration (IC50) values are yielded from the inflection point of the corresponding curve by fitting of resulting percentage inhibition values to standard equation (4 Parameter Logistic Model or Sigmoidal Dose-Response Model) via Excel Fit. Unless otherwise stated, fitting of curves was fixed to 100%-inhibition and unlocked for 0%-inhibition.

mouse CD38 = mouse CD38 (Mus musculus (Mouse), UniProt P56528); assay: NAD+ cyclase activity assay with mouse recombinant CD38 protein; type: biochemical; settings: 0.6 nM mouse CD38, 15.8 μM e-NAD substrate, fluorescence read-out
Protocol: as §1, §2, §3, §4, §5, §6, §7, §8

human CD38, sequence (P28907 whole entry): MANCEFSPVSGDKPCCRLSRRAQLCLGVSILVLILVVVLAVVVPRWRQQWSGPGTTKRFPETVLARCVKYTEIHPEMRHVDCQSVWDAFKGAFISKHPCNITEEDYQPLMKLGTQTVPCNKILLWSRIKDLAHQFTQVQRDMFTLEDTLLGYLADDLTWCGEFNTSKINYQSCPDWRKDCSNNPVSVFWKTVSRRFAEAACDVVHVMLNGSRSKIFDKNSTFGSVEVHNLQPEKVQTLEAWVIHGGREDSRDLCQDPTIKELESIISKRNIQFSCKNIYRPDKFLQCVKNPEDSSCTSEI
mouse CD38, sequence (P56528 whole entry): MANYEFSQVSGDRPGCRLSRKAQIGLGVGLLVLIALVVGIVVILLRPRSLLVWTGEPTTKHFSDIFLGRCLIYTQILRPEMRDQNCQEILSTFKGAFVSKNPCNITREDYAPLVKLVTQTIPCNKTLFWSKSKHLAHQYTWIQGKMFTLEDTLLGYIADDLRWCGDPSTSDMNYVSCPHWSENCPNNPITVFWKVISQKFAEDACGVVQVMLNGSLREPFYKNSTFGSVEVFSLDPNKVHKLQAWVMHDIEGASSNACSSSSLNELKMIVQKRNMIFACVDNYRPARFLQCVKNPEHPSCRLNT

SMILES: CCCC(=O)N1CCC(NC(=O)c2cc(C)cc(-n3ccnc3)n2)CC1 [Compound 13A, N-(1-Butyrylpiperidine-4-yl)-6-(1H-imidazol-1-yl)-4-methylpicolinamide]
IC50 (human CD38): 30 to 100 nM | IC50 (mouse CD38): 1 to 10 nM

SMILES: CS(=O)(=O)N1CCC(NC(=O)c2cccc(-n3ccnc3)n2)CC1 [Compound 16A, 6-(1H-Imidazol-1-yl)-N-(1-(methylsulfonyl)piperidin-4-yl)picolinamide]
IC50 (human CD38): 30 to 100 nM | IC50 (mouse CD38): 1 to 10 nM

SMILES: Cc1cc(C(=O)NC2CCN(S(=O)(=O)C3CCCCC3)CC2)nc(-n2ccnc2)c1 [Compound 5A, N-(1-(Cyclohexylsulfonyl)piperidin-4-yl)-6-(1H-imidazol-1-yl)-4-methylpicolinamide]
IC50 (human CD38): < 30 nM | IC50 (mouse CD38): 1 to 10 nM

SMILES: CCS(=O)(=O)N1CCC(NC(=O)c2cc(C)cc(-n3ccnc3)n2)CC1 [Compound 2A, N-(1-(Ethylsulfonyl)piperidin-4-yl)-6-(1H-imidazol-1-yl)-4-methylpicolinamide]
IC50 (human CD38): < 30 nM | IC50 (mouse CD38): 1 to 10 nM

SMILES: Cc1cc(C(=O)NC2CCC(F)(F)C2)nc(-n2ccnc2)c1 (centres unmarked) [Compound 35A, N-(3,3-Difluorocyclopentyl)-6-(1H-imidazol-1-yl)-4-methylpicolinamide]
IC50 (human CD38): < 30 nM | IC50 (mouse CD38): 1 to 10 nM

SMILES: Cc1cc(C(=O)N[C@H]2CCCOC2)nc(-n2ccnc2)c1 [Compound 45A, (S)-6-(1H-Imidazol-1-yl)-4-methyl-N-(tetrahydro-2H-pyran-3-yl)picolinamide]
IC50 (human CD38): 100 to 1000 nM | IC50 (mouse CD38): 1 to 10 nM

SMILES: Cc1cc(C(=O)NC2CCC(F)(F)CC2)nc(-n2ccnc2)c1 [Compound 8A, N-(4,4-Difluorocyclohexyl)-6-(1H-imidazol-1-yl)-4-methylpicolinamide]
IC50 (human CD38): < 30 nM | IC50 (mouse CD38): 1 to 10 nM

SMILES: Cc1cc(C(=O)NC2CCN(S(C)(=O)=O)CC2)nc(-n2ccnc2)n1 [Compound 61A, 2-(1H-Imidazol-1-yl)-6-methyl-N-(1-(methylsulfonyl)piperidin-4-yl)pyrimidine-4-carboxamide]
IC50 (human CD38): < 30 nM | IC50 (mouse CD38): < 1 nM

SMILES: Cc1cc(C(=O)NC2CCOCC2)nc(-n2ccnc2)c1 [Compound 32A, 6-(1H-Imidazol-1-yl)-4-methyl-N-(tetrahydro-2H-pyran-4-yl)picolinamide]
IC50 (human CD38): 30 to 100 nM | IC50 (mouse CD38): 1 to 10 nM

SMILES: CC(=O)N1CCC(NC(=O)c2cc(C)cc(-n3ccnc3)n2)CC1 [Compound 10A, N-(1-Acetylpiperidin-4-yl)-6-(1H-imidazol-1-yl)-4-methylpicolinamide]
IC50 (human CD38): 30 to 100 nM | IC50 (mouse CD38): 1 to 10 nM

SMILES: Cc1cc(C(=O)NC2CCNCC2)nc(-n2ccnc2)c1 [Compound 11A, 6-(1H-Imidazol-1-yl)-4-methyl-N-(piperidin-4-yl)picolinamide]
IC50 (human CD38): > 1000 nM | IC50 (mouse CD38): 1 to 10 nM

SMILES: CNS(=O)(=O)N1CCC(NC(=O)c2cc(C)cc(-n3ccnc3)n2)CC1 [Compound 14A, 6-(1H-Imidazol-1-yl)-4-methyl-N-(1-(N-methylsulfamoyl)piperidin-4-yl)picolinamide]
IC50 (human CD38): 100 to 1000 nM | IC50 (mouse CD38): 1 to 10 nM

SMILES: Cc1cc(C(=O)N[C@@H]2CCOC2)nc(-n2ccnc2)c1 [Compound 42A, (R)-6-(1H-Imidazol-1-yl)-4-methyl-N-(tetrahydrofuran-3-yl)picolinamide]
IC50 (human CD38): 30 to 100 nM | IC50 (mouse CD38): 1 to 10 nM

SMILES: Cc1cc(C(=O)NC2CCCS(=O)(=O)C2)nc(-n2ccnc2)c1 (centres unmarked) [Compound 36A, N-(1,1-Dioxidotetrahydro-2H-thiopyran-3-yl)-6-(1H-imidazol-1-yl)-4-methylpicolinamide]
IC50 (human CD38): 100 to 1000 nM | IC50 (mouse CD38): 1 to 10 nM

SMILES: Cc1cc(C(=O)NC2CCN(C(=O)CN3CCOCC3)CC2)nc(-n2ccnc2)c1 [Compound 19A, 6-(1H-Imidazol-1-yl)-4-methyl-N-(1-(2-morpholinoacetyl)piperidin-4-yl)picolinamide]
IC50 (human CD38): 30 to 100 nM | IC50 (mouse CD38): 1 to 10 nM

SMILES: Cc1cc(C(=O)NC2CN(S(C)(=O)=O)C2)nc(-n2ccnc2)c1 [Compound 7A, 6-(1H-Imidazol-1-yl)-4-methyl-N-(1-(methylsulfonyl)azetidin-3-yl)picolinamide]
IC50 (human CD38): 30 to 100 nM | IC50 (mouse CD38): 1 to 10 nM

SMILES: Cc1cc(C(=O)NC2CCC(C)(C)OC2)nc(-n2ccnc2)c1 (centres unmarked) [Compound 29A, N-(6,6-Dimethyltetrahydro-2H-pyran-3-yl)-6-(1H-imidazol-1-yl)-4-methylpicolinamide]
IC50 (human CD38): 30 to 100 nM | IC50 (mouse CD38): 1 to 10 nM

SMILES: Cc1cc(C(=O)N[C@@H]2CCCN(S(C)(=O)=O)C2)nc(-n2ccnc2)c1 [Compound 54A, (R)-6-(1H-Imidazol-1-yl)-4-methyl-N-(1-(methylsulfonyl)piperidin-3-yl)picolinamide]
IC50 (human CD38): 30 to 100 nM | IC50 (mouse CD38): 1 to 10 nM

SMILES: Cc1cc(C(=O)NC2CCN(S(C)(=O)=O)CC2)nc(-n2ccnc2)c1 [Compound 1A, 6-(1H-Imidazol-1-yl)-4-methyl-N-(1-(methylsulfonyl)piperidin-4-yl)picolinamide]
IC50 (human CD38): 30 to 100 nM | IC50 (mouse CD38): 1 to 10 nM

SMILES: COCCS(=O)(=O)N1CCC(NC(=O)c2cc(C)cc(-n3ccnc3)n2)CC1 [Compound 4A, 6-(1H-Imidazol-1-yl)-N-(1-((2-methoxyethyl)sulfonyl)piperidin-4-yl)-4-methylpicolinamide]
IC50 (human CD38): < 30 nM | IC50 (mouse CD38): 1 to 10 nM

SMILES: CNC(=O)N1CCC(NC(=O)c2cc(C)cc(-n3ccnc3)n2)CC1 [Compound 22A, 6-(1H-Imidazol-1-yl)-4-methyl-N-(1-(methylcarbamoyl)piperidin-4-yl)picolinamide]
IC50 (human CD38): < 30 nM | IC50 (mouse CD38): 1 to 10 nM

Further lines, results first:

IC50 (human CD38): 100 to 1000 nM | IC50 (mouse CD38): 1 to 10 nM
SMILES: Cc1cc(C(=O)N[C@H]2CCC(C)(C)OC2)nc(-n2ccnc2)c1 [Compound 65A, (S)—N-(6,6-Dimethyltetrahydro-2H-pyran-3-yl)-6-(1H-imidazol-1-yl)-4-methylpicolinamide]

IC50 (human CD38): < 30 nM | IC50 (mouse CD38): < 1 nM
SMILES: Cc1cc(C(=O)NC2CCN(S(=O)(=O)C3CCOC3)CC2)nc(-n2ccnc2)c1 (centres unmarked) [Compound 72A, 6-(1H-Imidazol-1-yl)-4-methyl-N-(1-((tetrahydrofuran-3-yl)sulfonyl)piperidin-4-yl)picolinamide]

IC50 (human CD38): > 1000 nM | IC50 (mouse CD38): 10 to 100 nM
SMILES: Cc1cc(C(=O)N[C@@H]2CCCN(C3COC3)C2)nc(-n2ccnc2)c1 [Compound 83A, (R)-6-(1H-Imidazol-1-yl)-4-methyl-N-(1-(oxetan-3-yl)piperidin-3-yl)picolinamide]

IC50 (human CD38): < 30 nM | IC50 (mouse CD38): 1 to 10 nM
SMILES: Cc1cc(C(=O)N[C@@H]2CCS(=O)(=O)C2)nc(-n2ccnc2)c1 [Compound 86A, (R)—N-(1,1-Dioxidotetrahydrothiophen-3-yl)-6-(1H-imidazol-1-yl)-4-methylpicolinamide]

IC50 (human CD38): < 30 nM | IC50 (mouse CD38): 1 to 10 nM
SMILES: O=C(N[C@@H]1CCS(=O)(=O)C1)c1cc(C(F)(F)F)cc(-n2ccnc2)n1 [Compound 78A, (R)—N-(1,1-Dioxidotetrahydrothiophen-3-yl)-6-(1H-imidazol-1-yl)-4-(trifluoromethyl)picolinamide]

IC50 (human CD38): < 30 nM | IC50 (mouse CD38): < 1 nM
SMILES: Cc1cc(C(=O)N[C@@H]2CCCOC2)nc(-n2ccnc2)n1 [Compound 69A, (R)-2-(1H-Imidazol-1-yl)-6-methyl-N-(tetrahydro-2H-pyran-3-yl)pyrimidine-4-carboxamide]

IC50 (human CD38): 100 to 1000 nM | IC50 (mouse CD38): 1 to 10 nM
SMILES: Cc1cc(C(=O)NC2COCC(F)(F)C2)nc(-n2ccnc2)c1 (stereo in doubt) [Compound 67A, (R)—N-(5,5-Ddifluorotetrahydro-2H-pyran-3-yl)-6-(1H-imidazol-1-yl)-4-methylpicolinamide]

IC50 (human CD38): 30 to 100 nM | IC50 (mouse CD38): 1 to 10 nM
SMILES: O=C(N[C@@H]1CCCOC1)c1cc(C(F)(F)F)nc(-n2ccnc2)n1 [Compound 76A, (R)-2-(1H-Imidazol-1-yl)-N-(tetrahydro-2H-pyran-3-yl)-6-(trifluoromethyl)pyrimidine-4-carboxamide]

IC50 (human CD38): 100 to 1000 nM | IC50 (mouse CD38): 10 to 100 nM
SMILES: Cc1cc(C(=O)N[C@H]2CCCN(C)C2=O)nc(-n2ccnc2)c1 [Compound 85A, (S)-6-(1H-Imidazol-1-yl)-4-methyl-N-(1-methyl-2-oxopiperidin-3-yl)picolinamide]

IC50 (human CD38): 30 to 100 nM | IC50 (mouse CD38): 1 to 10 nM
SMILES: Cc1cc(C(=O)N[C@@H]2CCC(C)(C)OC2)nc(-n2ccnc2)c1 [Compound 64A, (R)—N-(6,6-Dimethyltetrahydro-2H-pyran-3-yl)-6-(1H-imidazol-1-yl)-4-methylpicolinamide]
